From ChEMBL document CHEMBL3885861, “Open TG-GATES”

Species on record: Rattus norvegicus
Assay: Open TG-GATES - Regimen: Single
Format: toxicity, organism-based, Sprague-Dawley
Design: regimen Single, gender Male, age 6 weeks
Details: in vivo, po, 3 mg/kg, route gavage, dose level Middle; for APTT / Bas / Eos / Fbg / Hb / Ht / Lym / MCH / MCHC / MCV / Mono / Neu / PT / Plat / RBC / Ret / WBC: tissue Blood; for KIDNEY_L / KIDNEY_R / KIDNEY_TOTAL: tissue Kidney; for LIVER: tissue Liver; for A/G / ALP / ALT / AST / BUN / CRE / Ca / Cl / DBIL / GLC / IP / K / LDH / Na / PL / RALB / TBIL / TC / TG / TP / gamma-GTP: tissue Plasma

## CN1C(C(=O)Nc2ccccn2)=C(O)c2sc(Cl)cc2S1(=O)=O [LORNOXICAM]
3 h
  TERMINAL_BW: 224.5 g
  APTT: 20.3 s
  Bas: 0.6%
  Eos: 1%
  Fbg: 223.8 mg/dL
  Hb: 13.2 g/dL
  Ht: 40%
  Lym: 75.2%
  MCH: 21 pg
  MCHC: 32.9%
  MCV: 63.8 fL
  Mono: 3.4%
  Neu: 19.6%
  PT: 11.7 s
  Plat: 123.9 x10_4/uL
  RBC: 626.4 x10_4/ul
  Ret: 7.2%
  WBC: 135.4 x10_2/uL
  KIDNEY_L: 1 g
  KIDNEY_R: 1 g
  KIDNEY_TOTAL: 2 g
  LIVER: 10.3 g
  A/G: 1.6
  ALP: 1026.6 IU/L
  ALT: 45.4 IU/L
  AST: 81 IU/L
  BUN: 12.4 mg/dL
  CRE: 0.3 mg/dL
  Ca: 10.8 mg/dL
  Cl: 104 meq/L
  DBIL: 0.074 mg/dL
  GLC: 197 mg/dL
  IP: 9 mg/dL
  K: 4.1 meq/L
  LDH: 163.8 IU/L
  Na: 141.8 meq/L
  PL: 152.8 mg/dL
  RALB: 3.5 g/dL
  TBIL: 0.1 mg/dL
  TC: 82.4 mg/dL
  TG: 73.8 mg/dL
  TP: 5.7 g/dL
  gamma-GTP: 1 IU/L
6 h
  TERMINAL_BW: 222.9 g
  APTT: 18.9 s
  Bas: 0.6%
  Eos: 0.8%
  Fbg: 223.6 mg/dL
  Hb: 13.4 g/dL
  Ht: 40.2%
  Lym: 78.4%
  MCH: 21.3 pg
  MCHC: 33.4%
  MCV: 63.7 fL
  Mono: 3.4%
  Neu: 16.8%
  PT: 12.3 s
  Plat: 123.6 x10_4/uL
  RBC: 631.2 x10_4/ul
  Ret: 7.2%
  WBC: 108.8 x10_2/uL
  KIDNEY_L: 1 g
  KIDNEY_R: 1 g
  KIDNEY_TOTAL: 1.9 g
  LIVER: 10 g
  A/G: 1.7
  ALP: 948.8 IU/L
  ALT: 38.2 IU/L
  AST: 72.8 IU/L
  BUN: 11.8 mg/dL
  CRE: 0.4 mg/dL
  Ca: 10.6 mg/dL
  Cl: 104 meq/L
  DBIL: 0.074 mg/dL
  GLC: 193.6 mg/dL
  IP: 8.6 mg/dL
  K: 4.1 meq/L
  LDH: 159 IU/L
  Na: 140.6 meq/L
  PL: 134.8 mg/dL
  RALB: 3.5 g/dL
  TBIL: 0.2 mg/dL
  TC: 75 mg/dL
  TG: 64.4 mg/dL
  TP: 5.6 g/dL
  gamma-GTP: 0.8 IU/L
9 h
  TERMINAL_BW: 223.4 g
  APTT: 18.6 s
  Bas: 0.4%
  Eos: 0.8%
  Fbg: 220.2 mg/dL
  Hb: 13.2 g/dL
  Ht: 39.2%
  Lym: 71.2%
  MCH: 21.6 pg
  MCHC: 33.7%
  MCV: 64.1 fL
  Mono: 3.4%
  Neu: 24%
  PT: 12.2 s
  Plat: 120.6 x10_4/uL
  RBC: 611.6 x10_4/ul
  Ret: 6.8%
  WBC: 110.6 x10_2/uL
  KIDNEY_L: 1 g
  KIDNEY_R: 1 g
  KIDNEY_TOTAL: 2 g
  LIVER: 9.1 g
  A/G: 1.6
  ALP: 857.8 IU/L
  ALT: 41.2 IU/L
  AST: 69.8 IU/L
  BUN: 10.8 mg/dL
  CRE: 0.3 mg/dL
  Ca: 10.5 mg/dL
  Cl: 103.2 meq/L
  DBIL: 0.064 mg/dL
  GLC: 190 mg/dL
  IP: 9.7 mg/dL
  K: 4.1 meq/L
  LDH: 168.6 IU/L
  Na: 141.2 meq/L
  PL: 125.4 mg/dL
  RALB: 3.2 g/dL
  TBIL: 0.1 mg/dL
  TC: 66.2 mg/dL
  TG: 54.4 mg/dL
  TP: 5.3 g/dL
  gamma-GTP: 1 IU/L
24 h
  TERMINAL_BW: 235.4 g
  APTT: 20 s
  Bas: 0.2%
  Eos: 0.2%
  Fbg: 261.6 mg/dL
  Hb: 12.8 g/dL
  Ht: 39%
  Lym: 60.2%
  MCH: 20.8 pg
  MCHC: 32.9%
  MCV: 63.5 fL
  Mono: 3.8%
  Neu: 33.8%
  PT: 12.1 s
  Plat: 122.4 x10_4/uL
  RBC: 614.2 x10_4/ul
  Ret: 6.8%
  WBC: 136.9 x10_2/uL
  KIDNEY_L: 1 g
  KIDNEY_R: 1 g
  KIDNEY_TOTAL: 2.1 g
  LIVER: 11.4 g
  A/G: 1.5
  ALP: 892.2 IU/L
  ALT: 39.8 IU/L
  AST: 67.6 IU/L
  BUN: 13.2 mg/dL
  CRE: 0.4 mg/dL
  Ca: 10.5 mg/dL
  Cl: 104.8 meq/L
  DBIL: 0.078 mg/dL
  GLC: 203.8 mg/dL
  IP: 7.8 mg/dL
  K: 4.2 meq/L
  LDH: 207.8 IU/L
  Na: 141.8 meq/L
  PL: 133.2 mg/dL
  RALB: 3.1 g/dL
  TBIL: 0.1 mg/dL
  TC: 68.2 mg/dL
  TG: 74.4 mg/dL
  TP: 5.1 g/dL
  gamma-GTP: 0.8 IU/L
